# In BindingDB's records for doi:10.1021/jm800138h (Gsk, 2008):
# How the values were obtained:
# Experiment in all cases: Enzyme Inhibition Assay
# Beta-secretase 1 = Beta-secretase 1 (Homo sapiens, UniProt P56817); settings: pH 4.5; 22 °C
# Experimental: (§1) Enzyme activity and inhibition were assayed using a fluorescent FAM-[SEVNLDAEFK]-TAMRA substrate. Control reactions with no enzyme were included in each assay. Quantification of substrate cleavage was assessed using an LJL analyst spectrophotometer (485nm excitation, 535nm emission).
# Beta-secretase 2 = biological target: T1, Beta-secretase 2 (Homo sapiens, UniProt Q9Y5Z0); settings: pH 4.5; 22 °C
# T1 sequence (Q9Y5Z0 whole entry): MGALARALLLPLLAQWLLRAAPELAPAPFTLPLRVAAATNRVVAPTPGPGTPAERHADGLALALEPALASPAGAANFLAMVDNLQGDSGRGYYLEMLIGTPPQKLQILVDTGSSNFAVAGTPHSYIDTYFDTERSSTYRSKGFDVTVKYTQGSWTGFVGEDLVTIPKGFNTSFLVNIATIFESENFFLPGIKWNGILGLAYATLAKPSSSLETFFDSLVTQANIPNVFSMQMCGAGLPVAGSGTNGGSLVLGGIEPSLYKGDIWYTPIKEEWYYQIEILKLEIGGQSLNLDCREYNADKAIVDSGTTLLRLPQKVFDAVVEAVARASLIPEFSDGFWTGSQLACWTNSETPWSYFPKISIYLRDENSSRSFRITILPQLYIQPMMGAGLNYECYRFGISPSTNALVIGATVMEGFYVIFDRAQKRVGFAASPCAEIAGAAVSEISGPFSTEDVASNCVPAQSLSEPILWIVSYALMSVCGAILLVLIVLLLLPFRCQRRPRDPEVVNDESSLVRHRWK
# Experimental: as §1
# Cathepsin D = Cathepsin D (Homo sapiens, UniProt P07339)
# Chain of Cathepsin D (P07339 65-162 limits assumed): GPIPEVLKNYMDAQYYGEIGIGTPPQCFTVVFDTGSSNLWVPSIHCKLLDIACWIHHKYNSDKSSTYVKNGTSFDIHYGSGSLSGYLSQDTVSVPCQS
# Chain of Cathepsin D (P07339 169-412 limits assumed): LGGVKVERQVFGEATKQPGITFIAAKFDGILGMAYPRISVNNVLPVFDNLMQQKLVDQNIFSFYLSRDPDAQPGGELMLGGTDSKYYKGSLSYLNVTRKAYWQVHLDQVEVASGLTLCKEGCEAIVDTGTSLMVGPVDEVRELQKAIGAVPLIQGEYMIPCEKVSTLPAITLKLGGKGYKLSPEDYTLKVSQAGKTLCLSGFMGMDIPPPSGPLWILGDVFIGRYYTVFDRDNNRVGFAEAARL
# Experimental: as §1
# Chain of Beta-secretase 1 (P56817 whole entry): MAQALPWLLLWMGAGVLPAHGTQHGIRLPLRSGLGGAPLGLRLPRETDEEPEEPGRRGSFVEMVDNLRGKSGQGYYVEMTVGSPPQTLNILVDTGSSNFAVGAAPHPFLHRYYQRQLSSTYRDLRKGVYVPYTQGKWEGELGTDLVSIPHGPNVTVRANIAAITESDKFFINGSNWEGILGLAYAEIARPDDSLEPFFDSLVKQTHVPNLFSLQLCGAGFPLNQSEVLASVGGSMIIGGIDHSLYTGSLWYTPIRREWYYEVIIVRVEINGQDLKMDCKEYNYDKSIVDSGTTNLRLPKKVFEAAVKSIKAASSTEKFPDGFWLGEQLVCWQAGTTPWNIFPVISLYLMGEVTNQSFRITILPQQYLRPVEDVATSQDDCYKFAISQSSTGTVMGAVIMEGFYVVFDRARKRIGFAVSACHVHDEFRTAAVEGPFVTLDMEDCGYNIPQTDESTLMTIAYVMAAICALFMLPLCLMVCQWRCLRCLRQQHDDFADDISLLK
Structure (SMILES),IC50 (Beta-secretase 1) [nM],IC50 (Beta-secretase 2) [nM],IC50 (Cathepsin D) [nM]
"CCNc1cc(C(=O)N[C@@H](Cc2ccccc2)[C@H](O)CNC(C)(C)CCCC(C)C)cc(N2CCCCS2(=O)=O)c1 [N-[(2S,3R)-4-[(2,6-dimethylheptan-2-yl)amino]-3-hydroxy-1-phenylbutan-2-yl]-3-(1,1-dioxo-1,2-thiazinan-2-yl)-5-(ethylamino)benzamide]",30,7940,5250
"CCNc1cc(C(=O)N[C@@H](Cc2ccccc2)[C@H](O)CNC)cc(N2CCCCS2(=O)=O)c1 [3-(1,1-dioxo-1,2-thiazinan-2-yl)-5-(ethylamino)-N-[(2S,3R)-3-hydroxy-4-(methylamino)-1-phenylbutan-2-yl]benzamide]",140,–,> 100000
"CCNc1cc(C(=O)N[C@@H](Cc2ccccc2)[C@H](O)CNC2CCCCC2)cc(N2CCCCS2(=O)=O)c1 [N-[(2S,3R)-4-(cyclohexylamino)-3-hydroxy-1-phenylbutan-2-yl]-3-(1,1-dioxo-1,2-thiazinan-2-yl)-5-(ethylamino)benzamide]",69,4370,2340
CCc1cn2c3c(cc(C(=O)N[C@@H](Cc4ccccc4)[C@H](O)CNC4CCCCC4)cc13)N(C)S(=O)(=O)CC2 [BMCL193669 Compound 26],9,210,660
"CCc1cn2c3c(cc(C(=O)N[C@@H](Cc4ccccc4)[C@H](O)CNC(C)(C)CCCC(C)C)cc13)N(C)S(=O)(=O)CC2 [N-[(2S,3R)-4-[(2,6-dimethylheptan-2-yl)amino]-3-hydroxy-1-phenylbutan-2-yl]-3-ethyl-9-methyl-10,10-dioxo-10-thia-1,9-diazatricyclo[6.4.1.0^{4,13}]trideca-2,4(13),5,7-tetraene-6-carboxamide]",5,114,1000
